Each structure is given as a SMILES string.

Assay type in all cases: cell-based
Test [1] has as its target vanilloid receptor 1 (VR1/TRPV1-Receptor) (Homo sapiens, UniProt Q8NER1). The test is described as follows: VR1 functional assay following pH-stimulus. The note with it: read-out: inhibition (in percent), Human following pH-stimulus.
For test [2], the target named is T1, vanilloid receptor 1 (VR1/TRPV1) (Rattus norvegicus, UniProt O35433).
T1 construct: The vertebral column is removed from decapitated rats; from tissue; host or cells: primary cells from rat dorsal root ganglia (DRG)
T1 sequence (O35433 whole entry): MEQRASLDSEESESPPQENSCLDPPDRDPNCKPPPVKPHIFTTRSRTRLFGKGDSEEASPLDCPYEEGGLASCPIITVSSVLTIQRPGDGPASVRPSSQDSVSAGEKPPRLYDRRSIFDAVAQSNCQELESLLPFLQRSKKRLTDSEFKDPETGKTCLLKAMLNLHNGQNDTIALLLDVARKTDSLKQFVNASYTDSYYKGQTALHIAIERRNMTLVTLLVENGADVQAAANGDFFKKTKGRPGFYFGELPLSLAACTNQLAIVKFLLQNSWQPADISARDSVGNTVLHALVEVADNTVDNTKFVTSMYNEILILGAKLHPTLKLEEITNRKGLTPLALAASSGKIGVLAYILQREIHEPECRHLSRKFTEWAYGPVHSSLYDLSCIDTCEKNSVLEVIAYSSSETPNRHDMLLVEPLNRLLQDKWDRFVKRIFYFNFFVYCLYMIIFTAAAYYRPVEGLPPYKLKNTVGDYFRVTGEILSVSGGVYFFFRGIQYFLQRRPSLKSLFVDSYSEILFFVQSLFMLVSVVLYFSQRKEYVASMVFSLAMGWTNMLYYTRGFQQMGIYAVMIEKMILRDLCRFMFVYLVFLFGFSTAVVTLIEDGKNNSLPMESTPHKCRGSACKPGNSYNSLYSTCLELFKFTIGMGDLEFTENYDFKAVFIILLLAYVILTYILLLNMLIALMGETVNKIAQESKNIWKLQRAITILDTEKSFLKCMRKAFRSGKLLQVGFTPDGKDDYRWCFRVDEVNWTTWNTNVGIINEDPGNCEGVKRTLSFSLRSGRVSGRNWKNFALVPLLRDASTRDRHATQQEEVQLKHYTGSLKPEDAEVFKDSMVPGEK
The test is described as follows: Functional FLIPR Ca2+ influx assay on vanilloid receptor 1, capsaicin stimulus (Pharmacological Method I). To be noted: for inhibition at 1 µM / inhibition at 5 µM: capsaicin, read-out: inhibition (in percent), Rat Capsaicin.
Excerpt: The agonistic or antagonistic action of the substances to be investigated on the vanilloid receptor 1 (VR1/TRPV1) of the species rat can be determined using the following assay. According to this assay, the Ca^2+ influx through the receptor channel is quantified with the aid of a Ca^2+-sensitive dye (Type Fluo-4, Molecular Probes Europe BV, Leiden Netherlands) in a fluorescent imaging plate reader (FLIPR, Molecular Devices, Sunnyvale, USA).
The vertebral column is removed from decapitated rats and this is laid directly in a cold, i.e. ice bath-surrounded, HBSS buffer (Hank's buffered saline solution, Gibco Invitrogen GmbH, Karlsruhe, Germany) and 1% by volume of an AA solution (antibiotics/antimycotics solution, PAA, Pasching, Austria) is added. The vertebral column is cut in two longitudinally and the vertebral canal is removed together with fascias. Subsequently, the dorsal root ganglia (DRGs) are removed and in turn stored in cold HBSS buffer to which 1% by volume of an AA solution has been added. The DRGs completely freed from blood residues and spinal nerves are in each case transferred to 500 μL of cold collagenase Type 2 (PAA, Pasching, Austria) and incubated at 37° C. for 35 minutes. […] On completion of incubation, the enzyme solution is carefully pipetted off and 500 μL of complete medium are added to the DRGs in each case. The DRGs are in each case repeatedly suspended, drawn through No. 1, No. 12 and No. 16 needles by means of a syringe and transferred to 50 mL Falcon tubes and these are filled to 15 mL with complete medium. The contents of each Falcon tube are in each case filtered through a 70 μm Falcon filter insert and centrifuged at 1200 rpm and room temperature for 10 minutes. The resulting pellet is in each case taken up in 250 μL of complete medium and the cell count is determined.
The number of cells in the suspension is adjusted to 3×10^5 per mL and in each case 150 μL of this suspension are added to a well of the cell culture plates coated as described above.
The cells are then loaded with 2 μM Fluo-4 and 0.01% by volume of Pluronic F127 (Molecular Probes Europe BV, Leiden Netherlands) in HBSS buffer (Hank's buffered saline solution, Gibco Invitrogen GmbH, Karlsruhe, Germany) at 37° C. for 30 min, washed 3 times with HBSS buffer and, after a further incubation of 15 minutes at room temperature, employed in the FLIPR assay for Ca^2+ measurement. […] Quantification is carried out by measuring the highest fluorescence intensity (FC, fluorescence counts) over time.
Initially, the compounds to be tested (10 μM) are pipetted onto the cells and the Ca^2+ influx is compared with the control (capsaicin 10 μM). Information is gained therefrom in % activation relative to the Ca^2+ signal after addition of 10 μM of capsaicin (CP). After incubation for 5 minutes, 100 nM of capsaicin are applied and the influx of Ca^2+ is likewise determined.
Desensitizing agonists and antagonists lead to suppression of the Ca^2+ influx. The percentage inhibition is calculated in comparison with the maximum inhibition achieved with 10 μM of capsaicin.
Triplicate determinations (n=3) are carried out and these are repeated in at least 3 independent experiments (N=4).
Based on the percentage displacement effected by different concentrations of the compounds of the general formula I to be tested, IC50 inhibition concentrations are calculated which cause 50 percent displacement of capsaicin.

The target in another test is T2, vanilloid receptor (VR1) (Homo sapiens, UniProt Q8NER1).
T2 construct: expressed in transfected cells; host or cells: CHO-K1 cells (ECACC), stably transfected
T2 sequence (Q8NER1 whole entry): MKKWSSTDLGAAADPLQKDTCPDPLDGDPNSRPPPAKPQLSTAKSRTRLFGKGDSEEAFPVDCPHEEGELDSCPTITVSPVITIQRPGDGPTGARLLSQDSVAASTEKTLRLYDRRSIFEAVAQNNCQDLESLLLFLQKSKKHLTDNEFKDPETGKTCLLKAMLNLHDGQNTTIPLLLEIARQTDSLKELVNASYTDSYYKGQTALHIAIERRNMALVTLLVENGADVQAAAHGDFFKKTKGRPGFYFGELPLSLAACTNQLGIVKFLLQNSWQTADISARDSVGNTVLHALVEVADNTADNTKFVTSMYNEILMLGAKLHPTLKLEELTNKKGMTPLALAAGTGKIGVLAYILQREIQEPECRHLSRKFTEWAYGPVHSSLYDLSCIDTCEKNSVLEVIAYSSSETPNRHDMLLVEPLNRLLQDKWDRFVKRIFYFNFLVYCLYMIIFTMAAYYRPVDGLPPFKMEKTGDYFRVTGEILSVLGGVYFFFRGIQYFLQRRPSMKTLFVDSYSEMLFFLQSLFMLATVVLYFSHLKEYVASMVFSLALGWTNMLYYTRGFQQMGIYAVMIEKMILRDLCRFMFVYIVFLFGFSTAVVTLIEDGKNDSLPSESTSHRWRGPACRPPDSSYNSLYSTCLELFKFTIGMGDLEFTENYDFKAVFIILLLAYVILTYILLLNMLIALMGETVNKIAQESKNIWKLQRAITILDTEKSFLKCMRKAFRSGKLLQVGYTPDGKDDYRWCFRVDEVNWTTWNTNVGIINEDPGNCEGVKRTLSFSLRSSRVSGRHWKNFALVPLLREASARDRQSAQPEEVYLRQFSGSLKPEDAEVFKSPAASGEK
In words: Functional FLIPR Ca2+ influx assay in CHO-K1 cells transfected with the VR1 gene, capsaicin stimulus (Pharmacological Method II). The note with it: read-out: inhibition (in percent), Human Capsaicin.

Chain of vanilloid receptor 1 (VR1/TRPV1-Receptor) (Q8NER1 whole entry): as above

On to `CCC(C)(C(=O)NCc1ccc(C(F)(F)F)nc1SC1CCCCC1)c1ccc(NS(C)(=O)=O)c(F)c1` (stereo not drawn) [Example 8, N-((2-(Cyclohexylthio)-6-(trifluoromethyl)pyridin-3-yl)methyl)-2-(3-fluoro-4-(methylsulfonamido)phenyl)-2-methylbutanamide], for which, in test [1], the inhibition (as a rule, how much of the control response was suppressed) at 5 µM was 0% and the inhibition at 10 µM was found to be 20%. Besides, in test [2], the inhibition at 1 µM was determined as 26% and the inhibition at 5 µM amounted to 99%. In addition, on vanilloid receptor (VR1), the inhibition at 1 µM was 0% and the inhibition at 5 µM came out at 80%.
For `CS(=O)(=O)Nc1ccc(C2(C(=O)NCc3ccc(C(F)(F)F)nc3SC3CCCCC3)CCCC2)cc1F` [Example 14, N-((2-(Cyclohexylthio)-6-(trifluoromethyl)pyridin-3-yl)methyl)-1-(3-fluoro-4-(methylsulfonamido)phenyl)cyclopentanecarboxamide], in test [1], the inhibition at 5 µM was 4% and the inhibition at 10 µM stood at 33%. The affinity in test [2] (capsaicin stimulus) corresponds to a Ki of 117 nM. The inhibition at 0.1 µM on vanilloid receptor (VR1) (@ 0.1 μM) was 0%. Also, on vanilloid receptor (VR1), the inhibition at 1 µM turned out to be 20% and the inhibition at 5 µM was 77%.
Turning to `CC1CCN(c2nc(C(F)(F)F)ccc2CNC(=O)C2(c3ccc(NS(C)(=O)=O)c(F)c3)CCCCC2)CC1` [Example 15, 1-(3-Fluoro-4-(methylsulfonamido)phenyl)-N-((2-(4-methylpiperidin-1-yl)-6-(trifluoromethyl)pyridin-3-yl)methyl)cyclohexanecarboxamide], in test [1], the inhibition at 5 µM amounted to 7% and the inhibition at 10 µM was determined as 32%. Moreover, in test [2], the inhibition at 1 µM was found to be 7% and the inhibition at 5 µM was 69%. Moreover, at vanilloid receptor (VR1), the inhibition at 1 µM came to 0% and the inhibition at 5 µM turned out to be 33%.

(Values after US8735426B2, “Vanilloid receptor ligands, pharmaceutical compositions containing them, process for making them and use thereof for treating pain and other conditions” (Gruenenthal GmbH, priority 2007, dated 2014).)
